Reference: patent publication US20230391842A1, “RETRO-INVERSO PEPTIDES” (Herantis Pharma OYJ, priority 2019, published 2023)
Positions of bridges follow the written chain, without caps; N, C: chain ends. Non-standard residues stand in square brackets, D forms with d. Residues, ends and D or L forms follow the SMILES beside them. No end group written: not given here.

Assays:
[1] = molecular target: nucleotide-binding domain of GRP78 (GRP78-NBD); assay: Binding to GRP78-NBD Kd (μM)
Excerpt: Table printed on a drawing sheet, FIG. 5B
Head of the field: Binding to GRP78-NBD Kd (μM)
GRP78-NBD is shown in a to translucent surface model along with its cartoon trace. The Cys-Cys bond in compound 14 (SEQ ID NO: 14) is shown in sticks.
The binding affinities are obtained by microscale thermophoresis-based cell free assay.
GSK2606414 was used to inhibit PERK signaling and KIRA6 to inhibit IRE1alpha signaling. * p<0.05, ** p<0.01, *** p<0.001, **** p<0.0001 one-way ANOVA test with post-hoc Fisher's LSD test for pairwise comparison vs MPP+ negative control. #p<0.05, ##p<0.01, ###p<0.001, ####p<0.0001 one-way ANOVA test with post-hoc Fisher's LSD test for pairwise comparison between effect of compound alone and its combination with UPR signal inhibitor.
Where the first naming reader finds the target: head: Binding to GRP78-NBD Kd (μM)

[2] = In vivo pharmacokinetics after intravenous administration to rats; details: rat, 5 mg/kg intravenous bolus injection, male Sprague-Dawley rats, plasma; for clearance: read-out: CI
Protocol: Test compounds were intravenously (i.v.) administered to male Spraque-Dawley rats (about six weeks old, n=3 per compound) at 5 mg/kg. Blood samples were collected from jugular vein through implanted in-dwelling catheters (250 μl blood) into labelled polypropylene tubes containing anticoagulant (heparin) at 2 min, 5 min, 15 min, 30 min, 1 h, 2 h and 4 h after compound administration and held on wet ice for a maximum of 30 minutes. The blood samples were centrifuged for plasma separation (4° C., 21100 G, 5 min). Tolbutamide 500 ng/ml with 10% TFA in acetonitrile or in MeCN was used as an internal standard solution. The standard samples were prepared into rat plasma by spiking the matrix into concentrations 2-10 000 ng/ml of the analyte, respectively, and otherwise treated as the samples. To 50 μl aliquots of sample plasma was added 200 μl of internal standard. Samples were mixed (150 rpm, 15 min) and centrifugated (3000 rpm, 15 min). The analytical method was optimized for reaction monitoring chromatographic (peak shape & retention) shifts and mass spectrometric properties (ionization efficiency, MS/MS detection). Supernatants were is analyzed by UHPLC-TOF mass spectrometry using electrospray ionization. […]

rat hepatocytes = assay: In vitro metabolic stability in rat hepatocytes; details: 1 μM, 37° C., 0-60 min
[3] = In vitro metabolic stability in rat plasma; format: in vitro ADME; details: 1 μM, 37° C., up to 120 min
Protocol: Metabolic stability of the retro-inverso and native control peptides was studied using rat plasma over the time period of 120 min, with initial test concentration of 1 μM. Samples were analysed using LC/QE-orbitrap-MS. Calculated half-life is based on compound disappearance in rat plasma.
The incubation was terminated by acetonitrile. […] Stock solutions was prepared using 50% DMSO, and the compounds were spiked 1/100 to incubation to have final DMSO content of 0.5%. […] For analysis of compounds 13-14 and 19-20 stock solutions were prepared with PBS, and samples were analyzed by UHPLC-ToF mass spectrometry. Enalapril 1 μM was used as a disappearance rate control.

[4] = test system: dopaminergic TH-positive neurons injured with MPP+; assay: Neuroprotective effect on dopaminergic TH-positive neurons injured with MPP+ (primary mesencephalic culture); format: cell-based, rat; details: MPP+ 4 μM, 48 h; for potency of retro-inverso peptides relative to their parent compounds and to full-length CDNF protein: stated for 'most cases'
Protocol: Neuroprotective effects of compounds 1-20 (SEQ ID NO:s 1-20, parent and retro-inverso) were tested in an in vitro model in which primary cultures of rat embryonic mesencephalic neurons were stressed with MPP+, the active metabolite of neurotoxin 1-methyl-4-phenyl-1,2,3,6-tetrahydropyridine (MPTP). MPP+ kills dopaminergic (TH-positive) neurons via a variety of toxic mechanisms, including mitochondrial dysfunction, generation of peroxynitrite, oxidative stress, ER stress and induction of apoptosis.
Rat dopaminergic neurons were cultured as described by Visanji et al., 2008. Briefly, the midbrains obtained from 15-day-old rat embryos (Janvier, France) were dissected, and the ventral portion of the mesencephalic flexure, a region of the developing brain rich in dopaminergic neurons, was used for the cell preparations. The midbrain cells were dissociated by trypsinization for 20 min at 37° C. […] The reaction was stopped by adding Dulbecco's modified Eagle's medium (DMEM) containing DNAase I grade II (0.5 mg/mL) and 10% of fetal calf serum (FCS). Cells were then mechanically dissociated by 3 passages through a 10 ml pipette. Cells were then centrifuged at 180×g for 10 min at +4° C. on a layer of BSA (3.5%) in L15 medium. The cell pellets was re-suspended in a defined culture serum-free medium consisting of Neurobasal (Invitrogen) supplemented with B27 (2%), L-glutamine (2 mM) and 2% of PS solution and 10 ng/ml of Brain-derived neurotrophic factor (BDNF) and 1 ng/mL of Glial-Derived Neurotrophic Factor (GDNF). […] The cells were seeded at a density of 40 000 cells/well in 96 well-plates (pre-coated with poly-L-lysine) and maintained in a humidified incubator at 37° C. in 5% CO2/95% air atmosphere. Half of the medium was changed every 2 days with fresh medium. On 96-wells plates, only 60 wells are used. To avoid any edge effect, the first and last lines and columns were not be used for culture and were filled with sterile water.
On day 6 of culture, CDNF or the compounds 1-20 (SEQ ID NO:s 1-20, parent and retro-inverso), were dissolved in culture medium and then pre-incubated with mesencephalic neurons for 4 hours before the MPP+ application. Four hours after the preincubation of the compounds, MPP+ was added to a final concentration of 4 μM, diluted in control medium still in presence of compounds for 48 h.
48 hours after intoxication, the cells were fixed by a solution of 4% paraformaldehyde in PBS, pH 7.3 for 20 min at room temperature. The cells were washed twice in PBS, and then permeabilized and non-specific sites were blocked with a solution of PBS containing 0.1% of saponin and 1% FCS for 15 min at room temperature. Next, the cells were incubated with (a) a monoclonal antibody anti-Tyrosine Hydroxylase (TH) produced in mouse at dilution of 1:1 0000 and with (b) a polyclonal antibody anti-alpha-synuclein (aSyn) antibody produced in rabbit at dilution of 1:400 in PBS containing 1% FCS, 0.1% saponin, for 2 h at room temperature.
48 hours after intoxication, the cell culture supernatant was removed, and the cells fixed by a solution of 4% paraformaldehyde in PBS, pH 7.3 for 20 min at room temperature. The cells were washed twice in PBS, and then permeabilized and non-specific sites were blocked with a solution of PBS containing 0.1% of saponin and 1% FCS for 15 min at room temperature. Then, the cells were incubated with a) a monoclonal Anti-Tyrosine Hydroxylase (TH) antibody produced in mouse at dilution of 1:10000 in PBS containing 1% FCS, 0.1% saponin, for 2 hours at room temperature, and b) a polyclonal anti-postsynaptic density protein-95 (PSD-95) antibody produced in rabbit at dilution of 1:200 in PBS containing 1% FCS, 0.1% saponin, for 2 h at room temperature. This antibody stains specifically synapses.
For each condition, pictures representing the whole well area were automatically acquired using ImageXpress (Molecular device) at 10× (20 pictures, for TH and a-syn) or at 40× magnification (60 pictures, for TH and PSD-95). […]

[5] = test system: 3D in vitro model of blood brain barrier; assay: Permeation in a 3D in vitro model of blood-brain barrier; details: 500 nM, 2 h
human hepatocytes = assay: In vitro metabolic stability in human hepatocytes; details: 1 μM, 37° C., 0-60 min

## GEECRACAEKT (disulfide 4-7) [Compound 5]
[1]
  Kd: 3.21 µM

## EACARCEE ([dE][dA][dC][dA][dR][dC][dE][dE]; disulfide 3-6) [Compound 18] [listing 1 of 2 here]
[1]
  Kd: 1.23 µM

## C[C@@H](NC(=O)[C@@H](CCC(=O)O)NC(=O)[C@H](N)CCCCN)C(=O)N[C@@H]1CSSC[C@H](C(=O)N[C@H](CCC(=O)O)C(=O)N[C@H](CCC(=O)O)C(=O)O)NC(=O)[C@@H](CCCNC(=N)N)NC(=O)[C@@H](C)NC1=O [Compound 14, KEACARCEE] (H-[dK][dE][dA][dC][dA][dR][dC][dE][dE]-OH; disulfide 4-7; N-terminus and C-terminus assumed)
[2]
  AUC(0-inf): 7500 ng·h/mL
  MRT: 19.2 min
  Vd: 0.21 L/kg
  half-life: 18.4 min
  clearance: 11.4 mL/min/kg
Rat hepatocytes
  stability in rat hepatocytes as compared to parent compound: significantly improved stability
[3]
  stability in rat plasma as compared to parent compound: significantly improved stability

## EACARCEE ([dE][dA][dC][dA][dR][dC][dE][dE]; disulfide 3-6) [Compound 18] [listing 2 of 2 here]
[4]
  potency of retro-inverso peptides relative to their parent compounds and to full-length CDNF protein: comparable

## KEACGKCTE ([dK][dE][dA][dC]G[dK][dC][dT][dE]; disulfide 4-7) [Compound 16]
[4]
  potency of retro-inverso peptides relative to their parent compounds and to full-length CDNF protein: comparable

## C[C@H](O)[C@@H](N)C(=O)N[C@H](CCCCN)C(=O)N[C@H](CCC(=O)O)C(=O)N[C@H](C)C(=O)N[C@@H]1CSSC[C@H](C(=O)N[C@H](CCC(=O)O)C(=O)N[C@H](CCC(=O)O)C(=O)NCC(=O)O)NC(=O)[C@@H](CCCNC(=N)N)NC(=O)[C@@H](C)NC1=O [Compound 6, TKEACARCEEG]
[5]
  ability to pass through the in vitro blood-brain barrier as compared to parent compound: improved ability to pass
Human hepatocytes
  stability in human hepatocytes as compared to parent compound: significantly improved stability
[2]
  AUC(0-inf): 15500 ng·h/mL
  MRT: 29.4 min
  Vd: 0.16 L/kg
  half-life: 24.5 min
  clearance: 5.69 mL/min/kg
[1]
  Kd: 3.86 µM
Rat hepatocytes
  stability in rat hepatocytes as compared to parent compound: significantly improved stability
[4]
  potency of retro-inverso peptides relative to their parent compounds and to full-length CDNF protein: comparable

## ETCKGCAE (disulfide 3-6) [Compound 19]
[1]
  Kd: 14.3 µM

## C[C@H](O)[C@@H](NC(=O)[C@H]1CSSC[C@@H](NC(=O)[C@@H](C)NC(=O)[C@@H](CCC(=O)O)NC(=O)[C@@H](CCCCN)NC(=O)[C@H](N)CO)C(=O)NCC(=O)NCC(=O)N[C@H](CCCCN)C(=O)N1)C(=O)N[C@H](CCC(=O)O)C(=O)NCC(=O)O [Compound 12, SKEACGGKCTEG] (H-[dS][dK][dE][dA][dC]GG[dK][dC][dT][dE]G-OH; disulfide 5-9; N-terminus and C-terminus assumed)
[5]
  ability to pass through the in vitro blood-brain barrier as compared to parent compound: improved ability to pass
[2]
  AUC(0-inf): 4310 ng·h/mL
  MRT: 22.9 min
  Vd: 0.45 L/kg
  half-life: 19.7 min
  clearance: 19.5 mL/min/kg

## KEACGKCTEGWDDLIKKLEKVRL ([dK][dE][dA][dC]G[dK][dC][dT][dE]G[dW][dD][dD][dL][dI][dK][dK][dL][dE][dK][dV][dR][dL]; disulfide 4-7) [Compound 4]
[5]
  ability to pass through the in vitro blood-brain barrier as compared to parent compound: improved ability to pass
Human hepatocytes
  stability in human hepatocytes as compared to parent compound: significantly improved stability
Rat hepatocytes
  stability in rat hepatocytes as compared to parent compound: significantly improved stability
[4]
  potency of retro-inverso peptides relative to their parent compounds and to full-length CDNF protein: comparable

## KEACARCEE ([dK][dE][dA][dC][dA][dR][dC][dE][dE]; disulfide 4-7) [Compound 14]
[1]
  Kd: 0.68 µM

## CDNF: full-length cerebral dopamine neurotrophic factor protein (rhCDNF), unconventional neurotrophic factor
[4]
  alpha-synuclein (aSyn) aggregates / inclusions in TH-positive neurons: reducing accumulation
  protection of TH-positive neurons, their neurites and synapses from MPP+ toxicity: neuroprotective

## SKEACGGKCTEG ([dS][dK][dE][dA][dC]GG[dK][dC][dT][dE]G; disulfide 5-9) [Compound 12]
[1]
  Kd: 6.2 µM

## KEACARCEEGWSHLIQKLEAVRM [Compound 2]
[4]
  potency of retro-inverso peptides relative to their parent compounds and to full-length CDNF protein: comparable

## TKEACAGRCEEG ([dT][dK][dE][dA][dC][dA]G[dR][dC][dE][dE]G; disulfide 5-9) [Compound 10]
[4]
  potency of retro-inverso peptides relative to their parent compounds and to full-length CDNF protein: comparable

## EECRACAE (disulfide 3-6) [Compound 17]
[1]
  Kd: 0.3 µM
